Measurements published in paper PMC5920042, “KH176 Safeguards Mitochondrial Diseased Cells from Redox Stress-Induced Cell Death by Interacting with the Thioredoxin System/Peroxiredoxin Enzyme Machinery” (Scientific Reports, 2018).
Like-named read-outs stand apart in the source and are kept apart here.

Test: 28-day repeat oral dose toxicity study, toxicokinetics
Assay type: in vivo, Beagle dogs
Details: Beagle, dog, plasma, po; for AUC(0-t): read-out: AUC0–24 h; for Cmax: read-out: Cmax
Procedure: Pharmacokinetics and toxicokinetics measurements were performed by the commercial Contract Research Organizations Sai Life Sciences and WuXi AppTec, respectively, according to their standard protocols and in accordance with relevant guidelines and regulations. C57 BL/6 mice, Sprague Dawley rats, and Beagle dogs were studied.

[1] = female, 10 mg/kg, KH176 10 mg/kg/dose BID oral, F, Day 1, plasma
[2] = female, 10 mg/kg, KH176 10 mg/kg/dose BID oral, F, Day 28, plasma
[3] = female, 25 mg/kg, KH176 25 mg/kg/dose BID oral, F, Day 1, plasma
[4] = female, 25 mg/kg, KH176 25 mg/kg/dose BID oral, F, Day 28, plasma
[5] = female, 62.5 mg/kg, KH176 62.5 mg/kg/dose BID oral, F, Day 1, plasma
[6] = female, 62.5 mg/kg, KH176 62.5 mg/kg/dose BID oral, F, Day 28, plasma
[7] = male, 10 mg/kg, KH176 10 mg/kg/dose BID oral, M, Day 1, plasma
[8] = male, 10 mg/kg, KH176 10 mg/kg/dose BID oral, M, Day 28, plasma
[9] = male, 25 mg/kg, KH176 25 mg/kg/dose BID oral, M, Day 1, plasma
[10] = male, 25 mg/kg, KH176 25 mg/kg/dose BID oral, M, Day 28, plasma
[11] = male, 62.5 mg/kg, KH176 62.5 mg/kg/dose BID oral, M, Day 1, plasma
[12] = male, 62.5 mg/kg, KH176 62.5 mg/kg/dose BID oral, M, Day 28, plasma

Work on `Cc1c(C)c2c(c(C)c1O)CC[C@@](C)(C(=O)N[C@@H]1CCCNC1)O2.Cl` [KH176, (S)-6-hydroxy-2,5,7,8-tetramethyl-N-((R)-piperidin-3-yl)chroman-2-carboxamide hydrochloride] yielded a half-life [1] of 1.4 h, an AUC(0-t) [1] of 8840 ng·h/mL and a Cmax [1] of 1150 ng/mL. It also gave a half-life [2] of 2 h, an AUC(0-t) [2] of 14600 ng·h/mL and a Cmax [2] of 1540 ng/mL. It also gave a half-life [3] of 1.8 h, an AUC(0-t) [3] of 41900 ng·h/mL and a Cmax [3] of 4150 ng/mL. For the same compound, the half-life [4] was 2.5 h, the AUC(0-t) [4] was 40000 ng·h/mL and the Cmax [4] was 5190 ng/mL. It also gave a half-life [5] of 1.7 h, an AUC(0-t) [5] of 63100 ng·h/mL and a Cmax [5] of 8150 ng/mL. The half-life [6] was 2.3 h, the AUC(0-t) [6] was 85500 ng·h/mL and the Cmax [6] was 10200 ng/mL. For the same compound, the half-life [7] was 1.4 h, the AUC(0-t) [7] was 16400 ng·h/mL and the Cmax [7] was 2030 ng/mL. For the same compound, the half-life [8] was 1.8 h, the AUC(0-t) [8] was 19000 ng·h/mL and the Cmax [8] was 2330 ng/mL. For the same compound, the half-life [9] was 1.8 h, the AUC(0-t) [9] was 42600 ng·h/mL and the Cmax [9] was 4290 ng/mL. The half-life [10] was 2 h, the AUC(0-t) [10] was 39900 ng·h/mL and the Cmax [10] was 4540 ng/mL. For the same compound, the half-life [11] was 1.8 h, the AUC(0-t) [11] was 91500 ng·h/mL and the Cmax [11] was 10100 ng/mL. The half-life [12] was 2.4 h, the AUC(0-t) [12] was 102000 ng·h/mL and the Cmax [12] was 12600 ng/mL.
